Results taken from patent US11485742B2, “2-azaspiro[3.4]octane derivatives as M4 agonists” (NOVARTIS AG, priority 2019, dated 2022).

Assays:
[1] = biological target: T1, human cloned CHRM4 receptor (Homo sapiens, UniProt P08173); test: CHRM4 Ca++ Flux Assay (M4_CHO cells, agonist mode); assay type: cell-based; details: for EC50: geometric mean if tested more than once, read-out: M4 FDSS EC50; for Emax: read-out: M4 FDSS PA %
T1 construct: expressed in transfected cells; host or cells: CHO-K1 (M4_CHO)
T1 sequence (P08173 1-479): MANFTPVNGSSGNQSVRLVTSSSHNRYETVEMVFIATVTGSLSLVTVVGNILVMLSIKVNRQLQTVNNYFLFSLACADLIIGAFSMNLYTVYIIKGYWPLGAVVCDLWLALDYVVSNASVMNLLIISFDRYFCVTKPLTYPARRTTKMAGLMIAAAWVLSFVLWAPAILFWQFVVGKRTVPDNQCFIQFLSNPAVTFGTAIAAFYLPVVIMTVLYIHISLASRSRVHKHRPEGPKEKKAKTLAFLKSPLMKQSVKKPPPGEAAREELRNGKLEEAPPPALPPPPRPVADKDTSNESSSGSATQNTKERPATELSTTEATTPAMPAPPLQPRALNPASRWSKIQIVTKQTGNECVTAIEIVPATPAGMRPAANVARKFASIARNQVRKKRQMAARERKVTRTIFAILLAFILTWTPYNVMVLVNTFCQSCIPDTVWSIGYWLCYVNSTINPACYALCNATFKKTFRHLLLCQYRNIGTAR
Method: (§1) The above examples were characterized by measuring the intracellular mobilization of Ca^++ ions caused by signaling events mediated by the receptor. The Intra-cellular Calcium flux levels were captured by the highly sensitive Ca^++ indicator, Calcium Assay Kit (BD Biosciences; Catalog Number 640178. The fluorescent activity from all receptors were monitored by the fluorescent imager, FDSS 7000EX (Hamamatsu) over a span of 3 minutes. The change in Calcium flux was readily captured upon activation with the muscarinic orthosteric agonist, Carbachol.
CHO-K1 cells stably expressing the human cloned CHRM4 receptor (M4_CHO cells) were grown and maintained in a monolayer culture with F12/HAM (Life Technologies) supplemented with 10% Fetal Bovine Serum, 1X Pen-Strep, and 0.4 mg/mL Geneticin in a humidified atmosphere (5% CO2) at 37° C. The cultures were grown to 80-90% confluency in T150 flasks (Corning) and washed with 1×DPBS then lifted with 0.05% Trypsin (Life Technologies). The cells were harvested in growth media then spun (1K rpm, 3 minutes) and cryopreserved using Recovery Cell Culture Freezing Media (Gibco Technologies). Cells were stored in liquid nitrogen and thawed a day before the assay.
Prior to the day of the assay, stable M4_CHO cells were thawed and plated on 384 well black walled clear bottom TC treated plates (Greiner Cat #781091) at 12K cells/well using F12/HAM Media supplemented with 10% FBS (Life Technologies) and kept overnight in a humidified atmosphere (5% CO2) at 37° C. The next day, cells were loaded with 20 μL Ca^++ dye (BD Biosciences) using Loading Buffer (HBSS +Ca/+Mg, 20 mM HEPES, 2.5 mM Probenecid) and placed back in cell incubator for a minimum of 1 hour. After incubation, the dye was replaced with 45 μL Assay Buffer (HBSS −Ca/−Mg, 20 mM HEPES, 2.5 mM Probenecid) supplemented with 20 μM ATP (Sigma Aldrich) and kept at room temperature in the dark for 60 minutes before running on a cell imager. The FDSS 7000EX (Hamamatsu) was used to capture Ca^++ traces for a span of 3 minutes from cells treated with 11 point dose of compound in triplicate in order to generate dose response curves in agonist mode. All compounds were serially diluted in DMSO then prepared in Assay Buffer for Ca^++ flux studies. The dose response curves were generated from the average of triplicate wells obtained from each data point and used a non-linear regression of four parameter dose response algorithm. The Percent Activity (PA) was measured to EC100 of Carbachol.
(§2) If an Example was tested more than once in an assay, then the values below represent the geometric mean of the results from each independent experiment.

[2] = biological target: T2, human cloned CHRM3 receptor (Homo sapiens, UniProt P20309); test: CHRM3 Ca++ Flux Assay (M3_CHO cells, agonist mode); assay type: cell-based; details: for EC50: agonist mode, geometric mean if tested more than once, read-out: M3 FDSS EC50; for Emax: read-out: M3 FDSS PA %
T2 construct: expressed in transfected cells; host or cells: CHO-K1 (M3_CHO)
Method: as §1
CHO-K1 cells stably expressing the human cloned CHRM3 receptor (M3_CHO cells) were grown and maintained in a monolayer culture with F12/HAM (Life Technologies) supplemented with 10% Fetal Bovine Serum, IX Pen-Strep, and 0.4 mg/mL Geneticin in a humidified atmosphere (5% CO2) at 37° C. The cultures were grown to 80-90% confluency in T150 flasks (Corning) and washed with 1×DPBS and lifted with 0.05% Trypsin (Life Technologies). The cells were then spun (1K rpm, 3 minutes) and frozen using Recovery Cell Culture Freezing Media (Gibco Technologies). Cells were stored in liquid nitrogen and thawed a day before the assay. A similar procedure was used for cells stably expressing the human cloned CHRM5 receptor (M5_CHO).
Prior to the day of the assay, stable M3_CHO or M5_CHO cells were thawed and plated on Greiner 384 well black TC treated plates at 12K cells/well in F12/DMEM supplemented with 10% FBS (Hyclone) and kept overnight in a humidified atmosphere (5% CO2) at 37° C. The next day, cells were loaded with Ca^++ dye (BD Biosciences) using Loading Buffer (HBSS +Ca/+Mg, 20 mM HEPES, 2.5 mM Probenecid) and placed back in cell incubator for a minimum of 1 hour. After incubation, the dye was replaced with Assay Buffer (HBSS −Ca/−Mg, 20 mM HEPES, 2.5 mM Probenecid) and kept at room temperature in the dark before running on cell imager. The FDSS 7000EX (Hamamatsu) was used to acquire Ca^+− traces from cells treated with 11 point dose response of compounds in triplicate in order to generate dose response curves in agonist mode. All compounds were serially diluted in DMSO then prepared in Assay Buffer for Ca^++ flux studies. The dose response curves were generated from the average of triplicate wells obtained from each data point and used a non-linear regression of four parameter dose response algorithm. The Percent Activity (PA) was measured to EC100 of Carbachol.
as §2

[3] = Percent Activity (PA) measured to EC100 of Carbachol

T2 sequence (P20309 whole entry): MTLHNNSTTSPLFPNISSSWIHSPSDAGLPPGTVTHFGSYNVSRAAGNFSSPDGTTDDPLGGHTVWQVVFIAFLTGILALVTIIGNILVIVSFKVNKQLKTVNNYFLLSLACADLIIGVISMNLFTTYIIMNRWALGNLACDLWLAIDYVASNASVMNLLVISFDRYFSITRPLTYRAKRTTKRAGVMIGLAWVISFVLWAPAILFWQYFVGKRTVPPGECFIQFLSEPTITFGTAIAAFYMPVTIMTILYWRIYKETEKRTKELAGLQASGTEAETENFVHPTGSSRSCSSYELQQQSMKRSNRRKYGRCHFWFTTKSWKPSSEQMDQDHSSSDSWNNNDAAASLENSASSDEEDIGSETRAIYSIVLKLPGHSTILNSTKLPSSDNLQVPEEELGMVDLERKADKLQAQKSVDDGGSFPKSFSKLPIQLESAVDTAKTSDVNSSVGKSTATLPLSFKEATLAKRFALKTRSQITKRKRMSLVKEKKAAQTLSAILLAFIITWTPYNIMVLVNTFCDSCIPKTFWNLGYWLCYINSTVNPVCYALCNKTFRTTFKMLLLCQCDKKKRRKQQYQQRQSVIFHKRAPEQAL

Row | M4 FDSS PA % ([1]; Percent Activity (PA)) [%] | EC50 [1] [µM] | M3 FDSS PA % [2, 3] [%] | EC50 [2] [µM] | Emax ([1]; Percent Activity (PA)) [%] | Emax [2, 3] [%] | Structure (SMILES)
1 | 62 | 0.042 | 0 | > 25 | – | – | CC(C)(O)[C@H]1C[C@@H](Oc2ccc(F)cc2C2CCN([C@@H]3COC4(C3)CN(c3ncco3)C4)CC2)C1 (single isomer, unassigned) [Example 4U, 2-((1R,3s)-3-(4-fluoro-2-(1-((S)-2-(oxazol-2-yl)-5-oxa-2-azaspiro[3.4]octan-7-yl)piperidin-4-yl)phenoxy)cyclobutyl)propan-2-ol or 2-((1S,3r)-3-(4-fluoro-2-(1-((S)-2-(oxazol-2-yl)-5-oxa-2-azaspiro[3.4]octan-7-yl)piperidin-4-yl)phenoxy)cyclobutyl)propan-2-ol]
2 | – | 0.21 | – | > 25 | 16 | 0 | Fc1cc(F)c(OC2CC3(COC3)C2)c(C2CCN([C@@H]3COC4(C3)CN(c3nnco3)C4)CC2)c1 [Example 2AA, (S)-7-(4-(2-((2-oxaspiro[3.3]heptan-6-yl)oxy)-3,5-difluorophenyl)piperidin-1-yl)-2-(1,3,4-oxadiazol-2-yl)-5-oxa-2-azaspiro[3.4]octane]
3 | – | 0.946 | – | > 25 | 91 | 0 | Fc1cc(F)c(OC2CCOCC2)c(C2CCN([C@@H]3COC4(C3)CN(c3nnco3)C4)CC2)c1 [Example 2BB, (S)-7-(4-(3,5-difluoro-2-((tetrahydro-2H-pyran-4-yl)oxy)phenyl)piperidin-1-yl)-2-(1,3,4-oxadiazol-2-yl)-5-oxa-2-azaspiro[3.4]octane]
4 | – | 0.168 | – | > 25 | 79 | 0 | Fc1cc(F)c(O[C@@H]2CCOC2)c(C2CCN([C@@H]3COC4(C3)CN(c3nnco3)C4)CC2)c1 [Example 2CC, (S)-7-(4-(3,5-difluoro-2-(((R)-tetrahydrofuran-3-yl)oxy)phenyl)piperidin-1-yl)-2-(1,3,4-oxadiazol-2-yl)-5-oxa-2-azaspiro[3.4]octane]
5 | – | 0.155 | – | > 25 | 64 | 0 | Fc1cc(F)c(OCC2COC2)c(C2CCN([C@@H]3COC4(C3)CN(c3nnco3)C4)CC2)c1 [Example 2DD, (S)-7-(4-(3,5-difluoro-2-(oxetan-3-ylmethoxy)phenyl)piperidin-1-yl)-2-(1,3,4-oxadiazol-2-yl)-5-oxa-2-azaspiro[3.4]octane]
6 | – | 0.086 | – | > 25 | 74 | 0 | Fc1cc(F)c(OC2COC2)c(C2CCN([C@@H]3COC4(C3)CN(c3nnco3)C4)CC2)c1 [Example 2EE, (S)-7-(4-(3,5-difluoro-2-(oxetan-3-yloxy)phenyl)piperidin-1-yl)-2-(1,3,4-oxadiazol-2-yl)-5-oxa-2-azaspiro[3.4]octane]
7 | – | 0.026 | – | > 25 | 66 | 0 | Fc1cc(OC2COC2)c(C2CCN([C@@H]3COC4(C3)CN(c3nnco3)C4)CC2)cc1F [Example 2FF, (S)-7-(4-(4,5-difluoro-2-(oxetan-3-yloxy)phenyl)piperidin-1-yl)-2-(1,3,4-oxadiazol-2-yl)-5-oxa-2-azaspiro[3.4]octane]

Further lines, the molecule ahead of its results:

Row | Structure (SMILES) | M4 FDSS PA % ([1]; Percent Activity (PA)) [%] | EC50 [1] [µM] | M3 FDSS PA % [2, 3] [%] | EC50 [2] [µM] | Emax ([1]; Percent Activity (PA)) [%] | Emax [2, 3] [%]
8 | Fc1ccc(OC[C@@H]2CCOC2)c(C2CCN([C@@H]3COC4(C3)CN(c3nnco3)C4)CC2)c1 [Example 1B, (S)-7-(4-(5-fluoro-2-(((R)-tetrahydrofuran-3-yl)methoxy)phenyl)piperidin-1-yl)-2-(1,3,4-oxadiazol-2-yl)-5-oxa-2-azaspiro[3.4]octane] | – | 0.01 | – | > 25 | 84 | 0
9 | Fc1ccc(OC[C@H]2COCCO2)c(C2CCN([C@@H]3COC4(C3)CN(c3nnco3)C4)CC2)c1 [Example 1C] | – | 0.036 | – | > 25 | 78 | 0
10 | Fc1ccc(O[C@@H]2CCOC2)c(C2CCN([C@@H]3COC4(C3)CN(c3nnco3)C4)CC2)c1 [Example 1D, (S)-7-(4-(5-fluoro-2-(((R)-tetrahydrofuran-3-yl)oxy)phenyl)piperidin-1-yl)-2-(1,3,4-oxadiazol-2-yl)-5-oxa-2-azaspiro[3.4]octane] | – | 0.021 | – | > 25 | 80 | 0
11 | CC(C)(C#N)COc1ccc(F)cc1C1CCN([C@@H]2COC3(C2)CN(c2nnco2)C3)CC1 [Example 1E, (S)-3-(2-(1-(2-(1,3,4-oxadiazol-2-yl)-5-oxa-2-azaspiro[3.4]octan-7-yl)piperidin-4-yl)-4-fluorophenoxy)-2,2-dimethylpropanenitrile] | – | 0.027 | – | > 25 | 78 | 0
12 | Fc1ccc(OC[C@@H]2COCCO2)c(C2CCN([C@@H]3COC4(C3)CN(c3nnco3)C4)CC2)c1 [Example 1F, (S)-7-(4-(2-(((S)-1,4-dioxan-2-yl)methoxy)-5-fluorophenyl)piperidin-1-yl)-2-(1,3,4-oxadiazol-2-yl)-5-oxa-2-azaspiro[3.4]octane] | – | 0.03 | – | > 25 | 78 | 0
13 | Fc1ccc(OC2CCOCC2)c(C2CCN([C@@H]3COC4(C3)CN(c3nnco3)C4)CC2)c1 [Example 1G, (S)-7-(4-(5-fluoro-2-((tetrahydro-2H-pyran-4-yl)oxy)phenyl)piperidin-1-yl)-2-(1,3,4-oxadiazol-2-yl)-5-oxa-2-azaspiro[3.4]octane] | – | 0.031 | – | > 25 | 84 | 0
14 | Fc1ccc(O[C@H]2CCOC2)c(C2CCN([C@@H]3COC4(C3)CN(c3nnco3)C4)CC2)c1 [Example 1H, (S)-7-(4-(5-fluoro-2-(((S)-tetrahydrofuran-3-yl)oxy)phenyl)piperidin-1-yl)-2-(1,3,4-oxadiazol-2-yl)-5-oxa-2-azaspiro[3.4]octane] | – | 0.034 | – | > 25 | 77 | 0
